From US20260200890A1, “ADAR1 INHIBITORS AND METHODS OF USING THE SAME” (AVAMMUNE THERAPEUTICS INC., priority 2022, published 2026)

biological target: T1, ADAR1 (Homo sapiens, UniProt P55265); test: ADAR1 Inhibition Assay (IFN fold-induction, Quanti-Luc luminescence, p110 KO A549 dual cells); assay type: cell-based; conditions: IFN fold-induction vs DMSO, 24 and 48 h
T1 construct: endogenous in cells; host or cells: p110 KO A549 dual cells
T1 sequence (P55265 1-1226): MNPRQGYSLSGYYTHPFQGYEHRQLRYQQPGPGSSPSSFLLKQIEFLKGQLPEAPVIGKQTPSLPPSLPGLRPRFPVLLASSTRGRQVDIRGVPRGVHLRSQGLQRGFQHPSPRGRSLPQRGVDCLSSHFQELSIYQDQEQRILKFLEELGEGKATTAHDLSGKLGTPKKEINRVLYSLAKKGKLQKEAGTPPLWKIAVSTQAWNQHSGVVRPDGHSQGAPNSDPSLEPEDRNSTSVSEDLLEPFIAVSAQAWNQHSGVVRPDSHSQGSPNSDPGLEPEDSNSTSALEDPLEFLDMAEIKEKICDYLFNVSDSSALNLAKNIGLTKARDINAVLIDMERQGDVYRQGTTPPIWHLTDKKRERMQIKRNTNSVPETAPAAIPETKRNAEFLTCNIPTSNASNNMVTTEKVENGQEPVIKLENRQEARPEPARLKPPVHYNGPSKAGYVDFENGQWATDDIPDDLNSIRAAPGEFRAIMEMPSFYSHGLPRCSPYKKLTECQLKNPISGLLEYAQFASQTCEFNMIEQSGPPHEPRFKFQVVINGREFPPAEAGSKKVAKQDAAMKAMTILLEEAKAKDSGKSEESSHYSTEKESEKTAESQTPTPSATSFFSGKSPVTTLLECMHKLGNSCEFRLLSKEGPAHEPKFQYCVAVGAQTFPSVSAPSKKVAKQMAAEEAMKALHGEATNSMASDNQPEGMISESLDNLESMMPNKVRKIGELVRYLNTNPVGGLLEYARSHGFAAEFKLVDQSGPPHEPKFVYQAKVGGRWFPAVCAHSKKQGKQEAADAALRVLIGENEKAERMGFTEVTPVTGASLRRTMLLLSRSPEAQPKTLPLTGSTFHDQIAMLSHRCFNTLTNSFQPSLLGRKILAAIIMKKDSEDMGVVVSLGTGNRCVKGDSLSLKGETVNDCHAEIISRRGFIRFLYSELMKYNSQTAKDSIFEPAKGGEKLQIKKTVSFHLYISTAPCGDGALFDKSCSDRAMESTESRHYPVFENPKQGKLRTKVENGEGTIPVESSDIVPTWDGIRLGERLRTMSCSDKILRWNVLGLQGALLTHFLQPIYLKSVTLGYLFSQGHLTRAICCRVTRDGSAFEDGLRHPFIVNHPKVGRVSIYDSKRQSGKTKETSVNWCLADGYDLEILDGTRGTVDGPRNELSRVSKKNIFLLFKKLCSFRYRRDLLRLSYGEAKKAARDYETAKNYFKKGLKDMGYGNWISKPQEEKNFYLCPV
Procedure, shortened: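 p110 KO A549 dual cells (20,000/well) in supplemented DMEM, treated next day with compound at 1% final DMSO for 24 and 48 h at 37 °C, 5% CO2. Supernatant luminescence read with Quanti-Luc; IFN fold-induction = sample RLU/mean DMSO RLU, used for EC50.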

`CCOC(=O)c1cc(-c2cccc(OC)c2)sc1NC(=O)COC(=O)c1cccc(NS(C)(=O)=O)c1` [Compound 211] and `CCOC(=O)c1cc(-c2cccc(C)c2)sc1NC(=O)COC(=O)c1cccc(NS(C)(=O)=O)c1` [Compound 192] cannot be ordered by EC50: > 100 µM for the first, > 100 µM for the second.

`CCOC(=O)c1cc(P(=O)(OCC)OCC)sc1NC(=O)COC(=O)c1cccc(NS(C)(=O)=O)c1` [Compound 345] and `CCOC(=O)c1cc(P(=O)(O)O)sc1NC(=O)COC(=O)c1cccc(NS(C)(=O)=O)c1` [Compound 391] cannot be ordered by EC50: > 100 µM for the first, > 100 µM for the second.

First: CCOC(=O)c1cc(-c2ccc(C(=O)Nc3cccc(NS(C)(=O)=O)c3)cc2)sc1NC(C)=O [Compound 266]
Second: CCOC(=O)c1cc(-c2ccccc2)sc1NC(=O)CC(=O)Nc1cccc(NS(C)(=O)=O)c1 [Compound 312]
The EC50 of the first is higher: > 100 µM for the first, 50 to 100 µM for the second. The second is the more potent here.

Compared with `CCOC(=O)c1cc(-c2ccccc2)ncc1NC(=O)COC(=O)c1cccc(NS(C)(=O)=O)c1` [Compound 189], `CCOC(=O)c1cc(NC(=O)COC(=O)c2cccc(NS(C)(=O)=O)c2)ncc1-c1ccccc1` [Compound 249] is higher in EC50: ≤ 25 µM for the first, > 100 µM for the second. The first is the more potent here.

`CN(C)C(=O)c1cc(-c2ccccc2)sc1NC(=O)COC(=O)c1cccc(NS(C)(=O)=O)c1` [Compound 186] and `CCOC(=O)c1cc(-c2ccccc2)sc1NC(=O)COC(=O)c1cccc(NS(N)(=O)=O)c1` [Compound 112] cannot be ordered by EC50: > 100 µM for the first, > 100 µM for the second.

`CCOC(=O)c1cc(-c2ccccc2)sc1NC(=O)COC(=O)c1ccc(NS(C)(=O)=O)cc1` [Compound 101] and `CCOC(=O)c1cc(-c2ccccc2)sc1NC(=O)COC(=O)c1cc(NS(C)(=O)=O)ccc1C` [Compound 125] cannot be ordered by EC50: > 100 µM for the first, > 100 µM for the second.

`CCOC(=O)c1cc(-c2ccccc2)sc1NC(=O)c1cccc(C#N)c1` [Compound 88] and `CCOC(=O)c1cc(-c2ccccc2)sc1CC(=O)C1CCCN1C(=O)c1cccc(C#N)c1` (stereo not shown) [Compound 139] cannot be ordered by EC50: > 100 µM for the first, > 100 µM for the second.

`CCOC(=O)c1c(NC(=O)COC(=O)c2cccc(NS(C)(=O)=O)c2)sc(N2CCOCC2)c1C` [Compound 287] and `CCOC(=O)c1c(NC(=O)COC(=O)c2cccc(S(N)(=O)=O)c2)sc(C)c1C` [Compound 54] cannot be ordered by EC50: > 100 µM for the first, > 100 µM for the second.

`CCOC(=O)c1ccc(-c2ccccc2)nc1NC(=O)COC(=O)c1cccc(NS(C)(=O)=O)c1` [Compound 113] and `COC(=O)c1nc(-c2ccccc2)cnc1NC(=O)COC(=O)c1cccc(NS(C)(=O)=O)c1` [Compound 258] cannot be ordered by EC50: > 100 µM for the first, > 100 µM for the second.

`CCOC(=O)c1cc(-c2ccccc2)sc1NC(=O)c1cncc(-c2cccc(NS(C)(=O)=O)c2)n1` [Compound 264] and `CCOC(=O)c1cc(-c2ccccc2)sc1NC(=O)Cn1cc(-c2cccc(NS(C)(=O)=O)c2)nn1` [Compound 181] cannot be ordered by EC50: > 100 µM for the first, > 100 µM for the second.

`CCOC(=O)c1cc(-c2ccc(C(F)(F)F)cc2)sc1NC(=O)COC(=O)c1cccc(NS(C)(=O)=O)c1` [Compound 106] and `CCOC(=O)c1cc(-c2ccc(OC(F)(F)F)cc2)sc1NC(=O)COC(=O)c1cccc(NS(C)(=O)=O)c1` [Compound 100] cannot be ordered by EC50: > 100 µM for the first, > 100 µM for the second.

`CCOC(=O)c1cc(-c2ccccc2)sc1NC(=O)COC(=O)c1cccc(NS(=O)(=O)c2ccccc2)c1` [Compound 124] and `CCOC(=O)c1cc(-c2ccccc2)sc1NC(=O)COC(=O)c1cccc(NS(=O)(=O)C(F)(F)F)c1` [Compound 257] cannot be ordered by EC50: > 100 µM for the first, > 100 µM for the second.

First: NS(=O)(=O)c1cccc(NC(=O)CNC(=O)c2ccc(-c3ccccc3)s2)c1 [Compound 40]
Second: COC(=O)c1sc(-c2ccccc2)cc1NC(=O)COC(=O)c1cccc(S(N)(=O)=O)c1 [Compound 318]
The EC50 of the first is higher: > 100 µM for the first, 50 to 100 µM for the second.

`CCOC(=O)c1cc(-c2ccccc2)sc1NC(=O)CNC(=O)c1cccc(S(=O)(=O)N2CCCCC2)c1` [Compound 36] and `CCOC(=O)c1cc(-c2ccccc2)sc1NC(=O)CNC(=O)c1cccc(S(=O)(=O)N(C)C)c1` [Compound 4] cannot be ordered by EC50: > 100 µM for the first, > 100 µM for the second.

Compared with `CCOC(=O)c1sc(-c2ccccc2)cc1NC(=O)COC(=O)c1cccc(NS(C)(=O)=O)c1` [Compound 354], `COC(=O)c1sc(-c2ccccc2)cc1NC(=O)COC(=O)c1cccc(NS(C)(=O)=O)c1` [Compound 311] is lower in EC50: > 100 µM for the first, ≤ 25 µM for the second.

`CS(=O)(=O)Nc1cccc(C(=O)OCC(=O)Nc2ncc(-c3ccccc3)cc2CO)c1` [Compound 259] and `CCOC(=O)c1cc(-c2cccc(F)c2)sc1NC(=O)COC(=O)c1cccc(NS(C)(=O)=O)c1` [Compound 116] cannot be ordered by EC50: > 100 µM for the first, > 100 µM for the second.

`CCOC(=O)c1ccsc1NC(=O)COC(=O)c1cccc(NS(C)(=O)=O)c1` [Compound 97] and `CCOC(=O)c1ccncc1NC(=O)COC(=O)c1cccc(NS(C)(=O)=O)c1` [Compound 277] cannot be ordered by EC50: > 100 µM for the first, > 100 µM for the second.

First: CCOC(=O)c1cc(-c2ccccc2)sc1NC(=O)COC(=O)c1cccc(S(C)(=N)=O)c1 (stereo not shown) [Compound 174]
Second: CCOC(=O)c1cc(-c2ccccc2)sc1NC(=O)COC(=O)c1cccc(C(C)=O)c1 [Compound 64]
The EC50 of the first is higher: > 100 µM for the first, ≤ 25 µM for the second. The second is the more potent here.

`CCOC(=O)c1cc(-c2ccccc2)ncc1NC(=O)COC(=O)c1cccc(P(=O)(O)O)c1` [Compound 382] and `CCOC(=O)c1cc(-c2ccccc2)sc1NC(=O)COC(=O)c1ccccc1` [Compound 5] cannot be ordered by EC50: > 100 µM for the first, > 100 µM for the second.

First: CCOC(=O)c1cc(-c2ccc3c(cnn3C)c2)sc1NC(=O)COC(=O)c1cccc(NS(C)(=O)=O)c1 [Compound 305]
Second: CCOC(=O)c1cc(-c2ccc3c(cnn3C)c2)sc1NC(=O)CNC(=O)Cc1cccc(NS(C)(=O)=O)c1 [Compound 335]
The EC50 of the first is lower: 50 to 100 µM for the first, > 100 µM for the second.

First: CCOC(=O)c1cc(-c2ccccc2)sc1NC(=O)C1CCN(C(=O)c2cccc(NS(C)(=O)=O)c2)CC1 [Compound 168]
Second: CCOC(=O)c1cc(-c2ccccc2)sc1NC(=O)[C@H]1CCN(C(=O)c2cccc(NS(C)(=O)=O)c2)C1 [Compound 156]
The EC50 of the first is higher: > 100 µM for the first, ≤ 25 µM for the second. The second is the more potent here.

`CCOC(=O)c1cc(-c2ccccc2)sc1NC(=O)Cn1ncc2ccc(NS(C)(=O)=O)cc21` [Compound 242] and `CCOC(=O)c1cc(-c2ccccc2)sc1NC(=O)CN1C(=O)CN(C(=O)c2cccc(NS(C)(=O)=O)c2)C1=O` [Compound 238] cannot be ordered by EC50: > 100 µM for the first, > 100 µM for the second.

`CCOC(=O)c1cc(-c2ccccc2)sc1NC(=O)CN(C(=O)c1cccc(NS(C)(=O)=O)c1)C(C)C` [Compound 162] and `CCOC(=O)c1cc(-c2ccccc2)sc1NC(=O)C(C)NC(=O)Cc1cccc(NS(C)(=O)=O)c1` (stereo not shown) [Compound 337] cannot be ordered by EC50: > 100 µM for the first, > 100 µM for the second.

`CCOC(=O)c1cc(-c2ccccc2)sc1NC(=O)C1CCN(S(=O)(=O)c2cccc(NS(C)(=O)=O)c2)C1` (stereo not shown) [Compound 227] and `CCOC(=O)c1cc(-c2ccccc2)sc1NC(=O)C1CCN(Cc2cccc(NS(C)(=O)=O)c2)C1` (stereo not shown) [Compound 184] cannot be ordered by EC50: > 100 µM for the first, > 100 µM for the second.

`CCOC(=O)c1cc(-c2ccccc2)sc1NC(=O)OCc1nnc(-c2cccc(NS(C)(=O)=O)c2)o1` [Compound 290] and `CCOC(=O)c1cc(-c2ccccc2)sc1NC(=O)c1nncn1-c1cccc(NS(C)(=O)=O)c1` [Compound 272] cannot be ordered by EC50: > 100 µM for the first, > 100 µM for the second.

First: CCOC(=O)c1cc(-c2ccccc2)sc1NC(=O)CN(C)C(=O)c1cccc(P(=O)(OCC)OCC)c1 [Compound 392]
Second: CCOC(=O)c1cc(-c2ccccc2)sc1NC(=O)COC(=O)c1cccc(S(=O)(=O)N2CCC(N)C2)c1 (stereo not shown) [Compound 59]
The EC50 of the first is lower: 50 to 100 µM for the first, > 100 µM for the second. The first is the more potent here.

`CCOC(=O)c1cc(-c2ccccc2)sc1NC(=O)c1cccc(NC(=O)c2cccc(NS(C)(=O)=O)c2)c1` [Compound 323] and `CCOC(=O)c1cc(-c2ccc(O)cc2)sc1NC(=O)COC(=O)c1cccc(NS(C)(=O)=O)c1` [Compound 218] cannot be ordered by EC50: > 100 µM for the first, > 100 µM for the second.

`CCOC(=O)c1cc(-c2ccccc2)sc1NC(=O)C1CCCN(C(=O)c2cccc(S(N)(=O)=O)c2)C1` (stereo not shown) [Compound 111] and `CCOC(=O)c1cc(-c2ccccc2)sc1NC(=O)COC(c1cccc(NS(C)(=O)=O)c1)C(F)(F)F` (stereo not shown) [Compound 250] cannot be ordered by EC50: > 100 µM for the first, > 100 µM for the second.

`CCOC(=O)c1cc(-c2cccc(OC(F)(F)F)c2)sc1NC(=O)COC(=O)c1cccc(NS(C)(=O)=O)c1` [Compound 202] and `CCOC(=O)c1cc(-c2ccccc2)sc1NC(=O)COc1cc(C(F)(F)F)nc(NS(C)(=O)=O)n1` [Compound 300] cannot be ordered by EC50: > 100 µM for the first, > 100 µM for the second.
